In the assay the target is Ryanodine receptor 1 (Mus musculus) (UniProt E9PZQ0). The assay can be described thus: Selective inhibition of Ryanodine receptor 1 mediated physiological [Ca2+] release (PCR) from sarcoplasmic reticulum against calcium-induced Ca2+ release (CICR). In kind it is functional.

Among the data in ChEMBL document CHEMBL1134961, “[(125)I]-N-[(3-azido-5-iodo)benzyl]dantrolene and [(125)I]-N-[[3-iodo-5-(3-trifluoromethyl-3H-diazirin-3-yl)]benzyl]dantrolene: photoaffinity probes specific for the physiological Ca(2+) release from sarcoplasmic reticulum of skeletal muscle” (Bioorg Med Chem Lett, 2002) are Activity values, retold here.

The source made the active and inactive calls. No cut-off for these calls is given here.

Chain of Ryanodine receptor 1 (Mus musculus) (E9PZQ0 whole entry): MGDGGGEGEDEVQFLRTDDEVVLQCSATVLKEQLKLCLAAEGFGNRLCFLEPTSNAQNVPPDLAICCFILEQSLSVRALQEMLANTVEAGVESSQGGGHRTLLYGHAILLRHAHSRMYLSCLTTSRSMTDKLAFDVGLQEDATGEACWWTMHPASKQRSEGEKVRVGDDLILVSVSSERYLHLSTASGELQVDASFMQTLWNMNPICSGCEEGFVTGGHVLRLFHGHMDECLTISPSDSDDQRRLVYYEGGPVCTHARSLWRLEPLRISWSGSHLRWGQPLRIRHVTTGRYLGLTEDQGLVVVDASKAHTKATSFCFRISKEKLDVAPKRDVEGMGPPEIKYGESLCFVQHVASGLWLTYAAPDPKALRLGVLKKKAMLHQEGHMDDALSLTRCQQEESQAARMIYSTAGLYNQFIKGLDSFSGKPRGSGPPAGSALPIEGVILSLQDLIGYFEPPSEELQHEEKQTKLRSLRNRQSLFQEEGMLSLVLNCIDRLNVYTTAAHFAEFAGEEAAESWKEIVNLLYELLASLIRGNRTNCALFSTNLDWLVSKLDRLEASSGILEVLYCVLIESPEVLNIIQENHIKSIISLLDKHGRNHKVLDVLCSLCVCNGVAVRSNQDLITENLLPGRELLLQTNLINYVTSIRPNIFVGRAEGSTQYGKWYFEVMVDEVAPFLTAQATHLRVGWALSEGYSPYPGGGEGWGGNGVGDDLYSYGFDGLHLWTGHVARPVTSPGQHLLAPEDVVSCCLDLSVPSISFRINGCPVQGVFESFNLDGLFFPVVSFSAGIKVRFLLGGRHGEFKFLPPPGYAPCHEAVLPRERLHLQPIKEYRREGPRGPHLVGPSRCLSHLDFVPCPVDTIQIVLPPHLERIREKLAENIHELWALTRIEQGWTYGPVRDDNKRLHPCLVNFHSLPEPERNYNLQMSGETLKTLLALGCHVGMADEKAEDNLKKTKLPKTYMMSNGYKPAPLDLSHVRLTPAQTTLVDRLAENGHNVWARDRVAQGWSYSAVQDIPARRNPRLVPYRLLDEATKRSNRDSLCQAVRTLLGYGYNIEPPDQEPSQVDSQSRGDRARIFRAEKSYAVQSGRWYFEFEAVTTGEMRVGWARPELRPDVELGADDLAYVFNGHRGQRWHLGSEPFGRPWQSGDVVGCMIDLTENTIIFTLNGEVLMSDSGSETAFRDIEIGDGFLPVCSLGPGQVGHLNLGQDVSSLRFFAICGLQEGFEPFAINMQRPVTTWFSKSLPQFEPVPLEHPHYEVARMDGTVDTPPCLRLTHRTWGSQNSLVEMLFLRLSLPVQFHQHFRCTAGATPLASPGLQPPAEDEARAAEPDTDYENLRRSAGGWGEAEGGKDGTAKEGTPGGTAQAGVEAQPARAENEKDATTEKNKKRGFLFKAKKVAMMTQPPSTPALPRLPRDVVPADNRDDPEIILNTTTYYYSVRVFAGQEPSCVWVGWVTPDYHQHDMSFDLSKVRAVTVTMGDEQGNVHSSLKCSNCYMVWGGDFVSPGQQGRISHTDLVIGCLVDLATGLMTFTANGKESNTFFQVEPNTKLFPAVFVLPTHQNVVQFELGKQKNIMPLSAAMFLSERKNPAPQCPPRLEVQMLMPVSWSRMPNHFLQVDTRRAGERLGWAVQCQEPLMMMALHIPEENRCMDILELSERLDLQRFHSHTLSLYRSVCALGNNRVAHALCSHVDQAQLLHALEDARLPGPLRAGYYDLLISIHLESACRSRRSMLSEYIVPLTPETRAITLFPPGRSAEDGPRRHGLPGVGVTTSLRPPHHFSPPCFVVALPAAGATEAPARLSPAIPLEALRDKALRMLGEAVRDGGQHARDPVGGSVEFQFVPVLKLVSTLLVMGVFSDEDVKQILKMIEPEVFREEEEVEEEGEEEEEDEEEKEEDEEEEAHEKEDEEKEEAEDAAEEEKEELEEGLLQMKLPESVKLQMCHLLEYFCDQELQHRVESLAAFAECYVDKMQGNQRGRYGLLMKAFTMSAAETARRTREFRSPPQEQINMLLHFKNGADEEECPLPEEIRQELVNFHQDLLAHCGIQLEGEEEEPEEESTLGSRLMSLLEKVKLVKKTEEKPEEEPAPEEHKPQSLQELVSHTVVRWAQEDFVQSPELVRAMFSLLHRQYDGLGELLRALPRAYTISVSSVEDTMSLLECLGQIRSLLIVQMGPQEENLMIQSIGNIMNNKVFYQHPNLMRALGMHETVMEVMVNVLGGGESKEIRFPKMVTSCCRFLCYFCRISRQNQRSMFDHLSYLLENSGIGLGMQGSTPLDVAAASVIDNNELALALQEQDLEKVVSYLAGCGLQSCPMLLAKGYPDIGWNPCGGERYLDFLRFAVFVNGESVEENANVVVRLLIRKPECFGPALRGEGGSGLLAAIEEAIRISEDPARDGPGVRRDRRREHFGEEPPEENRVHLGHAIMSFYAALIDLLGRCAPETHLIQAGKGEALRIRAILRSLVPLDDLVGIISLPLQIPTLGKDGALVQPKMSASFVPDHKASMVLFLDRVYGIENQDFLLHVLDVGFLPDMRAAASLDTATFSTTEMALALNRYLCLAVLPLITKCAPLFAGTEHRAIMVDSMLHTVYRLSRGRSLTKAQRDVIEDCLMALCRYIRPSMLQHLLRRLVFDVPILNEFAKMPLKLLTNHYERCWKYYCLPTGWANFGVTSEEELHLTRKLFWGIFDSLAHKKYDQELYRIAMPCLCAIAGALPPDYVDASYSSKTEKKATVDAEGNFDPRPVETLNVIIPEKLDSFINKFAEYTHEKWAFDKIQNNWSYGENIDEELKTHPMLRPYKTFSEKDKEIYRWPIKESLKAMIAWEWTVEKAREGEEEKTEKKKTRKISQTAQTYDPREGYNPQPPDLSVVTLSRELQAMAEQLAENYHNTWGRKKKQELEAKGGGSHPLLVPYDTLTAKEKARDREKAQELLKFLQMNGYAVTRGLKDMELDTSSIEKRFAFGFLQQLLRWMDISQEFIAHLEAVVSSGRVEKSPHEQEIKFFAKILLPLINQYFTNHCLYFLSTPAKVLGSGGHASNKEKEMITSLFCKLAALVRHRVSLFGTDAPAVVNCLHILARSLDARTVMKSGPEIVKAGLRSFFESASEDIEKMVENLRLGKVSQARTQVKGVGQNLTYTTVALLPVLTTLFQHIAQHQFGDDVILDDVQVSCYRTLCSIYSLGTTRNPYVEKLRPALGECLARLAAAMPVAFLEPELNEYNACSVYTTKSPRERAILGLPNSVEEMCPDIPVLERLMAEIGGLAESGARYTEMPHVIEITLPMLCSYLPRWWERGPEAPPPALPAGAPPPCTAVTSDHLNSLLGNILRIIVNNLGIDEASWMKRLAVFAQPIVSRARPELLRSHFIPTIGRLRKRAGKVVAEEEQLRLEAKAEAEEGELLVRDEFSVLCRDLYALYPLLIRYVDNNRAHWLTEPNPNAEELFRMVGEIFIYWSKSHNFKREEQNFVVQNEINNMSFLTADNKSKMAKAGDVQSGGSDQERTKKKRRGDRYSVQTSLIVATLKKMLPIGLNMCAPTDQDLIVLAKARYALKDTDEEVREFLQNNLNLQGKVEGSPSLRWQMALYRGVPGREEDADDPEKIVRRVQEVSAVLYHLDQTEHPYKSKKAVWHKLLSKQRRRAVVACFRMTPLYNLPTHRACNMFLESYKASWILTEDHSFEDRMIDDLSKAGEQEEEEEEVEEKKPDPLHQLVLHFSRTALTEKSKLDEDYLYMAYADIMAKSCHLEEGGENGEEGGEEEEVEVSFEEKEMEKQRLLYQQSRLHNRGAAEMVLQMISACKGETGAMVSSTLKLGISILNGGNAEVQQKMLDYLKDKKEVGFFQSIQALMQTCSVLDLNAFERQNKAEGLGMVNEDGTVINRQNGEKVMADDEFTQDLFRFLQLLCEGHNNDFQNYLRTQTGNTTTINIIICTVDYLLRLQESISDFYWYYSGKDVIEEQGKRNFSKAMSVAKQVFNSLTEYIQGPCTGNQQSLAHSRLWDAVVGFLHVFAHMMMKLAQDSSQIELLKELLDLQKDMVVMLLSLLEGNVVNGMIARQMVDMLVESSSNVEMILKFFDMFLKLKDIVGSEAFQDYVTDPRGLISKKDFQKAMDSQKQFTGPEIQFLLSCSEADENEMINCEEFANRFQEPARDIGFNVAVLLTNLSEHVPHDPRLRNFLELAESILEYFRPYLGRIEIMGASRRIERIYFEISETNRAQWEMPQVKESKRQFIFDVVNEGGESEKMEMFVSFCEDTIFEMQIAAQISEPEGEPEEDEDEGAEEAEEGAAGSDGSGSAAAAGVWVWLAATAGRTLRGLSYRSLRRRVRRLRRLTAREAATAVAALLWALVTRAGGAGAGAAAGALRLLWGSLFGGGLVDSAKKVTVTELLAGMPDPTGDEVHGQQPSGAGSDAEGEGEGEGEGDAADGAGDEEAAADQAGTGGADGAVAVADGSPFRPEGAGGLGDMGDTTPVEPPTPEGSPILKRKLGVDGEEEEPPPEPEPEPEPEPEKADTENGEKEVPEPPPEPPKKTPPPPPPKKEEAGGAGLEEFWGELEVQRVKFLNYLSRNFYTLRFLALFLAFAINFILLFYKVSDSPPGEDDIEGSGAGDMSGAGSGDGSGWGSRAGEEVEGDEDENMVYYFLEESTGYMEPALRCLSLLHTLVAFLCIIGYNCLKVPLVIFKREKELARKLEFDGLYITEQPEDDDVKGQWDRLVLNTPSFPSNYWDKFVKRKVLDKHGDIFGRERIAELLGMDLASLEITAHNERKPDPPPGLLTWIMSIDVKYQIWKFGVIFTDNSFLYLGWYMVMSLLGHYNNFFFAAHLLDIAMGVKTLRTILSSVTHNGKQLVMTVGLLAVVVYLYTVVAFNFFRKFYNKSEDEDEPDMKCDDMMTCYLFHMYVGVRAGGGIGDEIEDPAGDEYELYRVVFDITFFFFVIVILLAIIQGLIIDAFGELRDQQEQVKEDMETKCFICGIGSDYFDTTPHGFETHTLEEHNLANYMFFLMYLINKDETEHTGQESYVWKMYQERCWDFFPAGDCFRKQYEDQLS

For `[N-]=[N+]=Nc1cc(I)cc(CN2C(=O)CN(/N=C/c3ccc(-c4ccc([N+](=O)[O-])cc4)o3)C2=O)c1`, the outcome was Active.
For `O=C1CN(/N=C/c2ccc(-c3ccc([N+](=O)[O-])cc3)o2)C(=O)N1Cc1cc(I)cc(C2(C(F)(F)F)N=N2)c1` the value was “Active”.
